US12492181B2, “Gem-disubstituted piperidine melanocortin subtype-2 receptor (MC2R) antagonists and uses thereof” (Crinetics Pharmaceuticals, Inc., priority 2019, dated 2025)
pKi: −log10 of the molar value.

Biological target: T1, hMC2 receptor (crude hMC2R membranes from CRE-bla-CHO-K1 cells stably expressing hMC2 receptor and hMRAP accessory protein) (Homo sapiens, UniProt Q01718)
T1 construct: crude membrane fractions
Assay: hMC2 membrane binding assay ([125I]ACTH (1-39) Tyr23, SPA)
Details: displacement of 0.2 nM [125I]ACTH (1-39) Tyr23 from hMC2R membranes, 1.5 hours at room temperature; read-out: MC2R binding potency
Procedure: Crude membrane fractions are prepared from CRE-bla-CHO-K1 cells stably expressing hMC2 receptor and hMRAP accessory protein (Thermo Fisher). The cells are grown to 85-100% confluence on standard tissue culture dishes in GlutaMax DMEM growth media (Gibco) with following additives: 10% dialyzed FBS (Gemini), 0.1 mM NEAA (Gibco), 25 mM HEPES (Gibco), 5 μg/mL blasticidin (Goldbio), 100 μg/mL zeocin (Invitrogen), 600 μg/mL hygromycin (Goldbio). To prepare membranes, cells are scraped and collected in 1× Dulbecco's phosphate buffered saline (Corning) and then pelleted at 1000 RPM's. The cell pellet is reconstituted in membrane preparation buffer (20 mM HEPES, 6 mM MgCl2 and 1 mM EGTA, protease inhibitor tablets (Pierce) adjusted to pH 7.4), homogenized using a dounce homogenizer, and the resulting membrane fraction is pelleted by centrifugation at 12,000 RPM's. The membrane pellet is resuspended in membrane preparation buffer, snap freezed and stored at −80° C. for later use.
Binding Assay for hMC2 Antagonists Protocol:
The hMC2 membrane binding assay utilizes the following components: radiolabel [^125I]ACTH (1-39) Tyr23 (PerkinElmer), wheatgerm agglutinin coated PVT SPA beads (PerkinElmer), crude hMC2R membranes, and compounds. Briefly hMC2R membranes are incubated with SPA beads in binding assay buffer (50 mM HEPES, 5 mM MgCl2, 1 mM CaCl2), 0.20% BSA, protease inhibitor tablets (Pierce) adjusted to pH7.4) prior to assay initiation. […] Assay plates are read using a Top Count NXT and Ki values for compounds are determined using a GraphPad Prism 6 non-linear regression analysis.

T1 sequence (Q01718 whole entry): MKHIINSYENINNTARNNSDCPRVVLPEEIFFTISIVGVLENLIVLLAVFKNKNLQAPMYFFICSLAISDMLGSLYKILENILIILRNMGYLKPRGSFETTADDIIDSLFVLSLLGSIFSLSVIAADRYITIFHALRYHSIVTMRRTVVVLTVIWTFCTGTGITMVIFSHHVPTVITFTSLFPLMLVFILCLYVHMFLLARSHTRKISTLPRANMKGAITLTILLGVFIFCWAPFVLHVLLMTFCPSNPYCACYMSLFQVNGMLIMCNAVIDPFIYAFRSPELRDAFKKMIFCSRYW
T1 sequence (Q8TCY5 whole entry partner): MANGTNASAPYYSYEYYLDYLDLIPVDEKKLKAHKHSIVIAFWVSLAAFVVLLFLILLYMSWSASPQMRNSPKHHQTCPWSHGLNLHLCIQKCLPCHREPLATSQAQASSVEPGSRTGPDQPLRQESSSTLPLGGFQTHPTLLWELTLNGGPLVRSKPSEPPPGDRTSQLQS

## CCOc1ccccc1-c1ncc(C2(C(=O)N[C@H]3CCN(C)C3)CCN(c3ccc(C(F)(F)F)nc3C#N)CC2)cc1F [Compound 1-125, 1-[2-cyano-6-(trifluoromethyl)pyridin-3-yl]-4-[6-(2-ethoxyphenyl)-5-fluoropyridin-3-yl]-N-[(3S)-1-methylpyrrolidin-3-yl]piperidine-4-carboxamide]
  pKi: > 8.00

## CCOc1ncccc1-c1ccc(C2(NC(=O)CN(C)C)CCN(c3ccc(C(F)(F)F)cc3C#N)CC2)cn1 [Compound 2-26, N-{1-[2-cyano-4-(trifluoromethyl)phenyl]-4-{2′-ethoxy-[2,3′-bipyridin]-5-yl}piperidin-4-yl}-2-(dimethylamino)acetamide]
  pKi: > 8.00

## COc1ccccc1-c1ccc(C2(NC(=O)N[C@H]3CCN(C)C3)CCN(c3ccc(C(F)(F)F)cc3C#N)CC2)cn1 [Compound 2-55, 1-{1-[2-cyano-4-(trifluoromethyl)phenyl]-4-[6-(2-methoxyphenyl)pyridin-3-yl]piperidin-4-yl}-3-[(3S)-1-methylpyrrolidin-3-yl]urea]
  pKi: > 8.00

## Cc1ccccc1-c1ccc(C2(C(=O)N[C@@H]3CCN(C)C3)CCN(c3ccc(C(F)(F)F)cc3C#N)CC2)cn1 [Compound 1-66, 1-[2-cyano-4-(trifluoromethyl)phenyl]-4-[6-(2-methylphenyl)pyridin-3-yl]-N-[(3R)-1-methylpyrrolidin-3-yl]piperidine-4-carboxamide]
  pKi: > 8.00

## CN1CC[C@@H](NC(=O)C2(c3ccc(-c4ccccc4CO)nc3)CCN(c3ccc(C(F)(F)F)cc3C#N)CC2)C1 [Compound 1-55, 1-[2-cyano-4-(trifluoromethyl)phenyl]-4-{6-[2-(hydroxymethyl)phenyl]pyridin-3-yl}-N-[(3R)-1-methylpyrrolidin-3-yl]piperidine-4-carboxamide]
  pKi: > 8.00

## CCOc1ccccc1-c1ccc(C2(NC(=O)[C@H]3CCN(C)C3)CCN(c3ccc(Cl)cc3C#N)CC2)cn1 [Compound 2-28, (3S)—N-[1-(4-chloro-2-cyanophenyl)-4-[6-(2-ethoxyphenyl)pyridin-3-yl]piperidin-4-yl]-1-methylpyrrolidine-3-carboxamide]
  pKi: > 8.00

## CCOc1ncccc1-c1ccc(C2(C(=O)NCCN(C)C)CCN(c3ccc(C(F)(F)F)cc3F)CC2)nn1 [Compound 1-335, N-[2-(dimethylamino)ethyl]-4-[6-(2-ethoxypyridin-3-yl)pyridazin-3-yl]-1-[2-fluoro-4-(trifluoromethyl)phenyl]piperidine-4-carboxamide]
  pKi: > 8.00

## CCOc1ncccc1-c1ccc(C2(C(=O)N[C@H]3CCN(C)C3)CCN(c3ccc(C#N)cc3C(F)(F)F)CC2)cn1 [Compound 1-38, 1-[4-cyano-2-(trifluoromethyl)phenyl]-4-{2′-ethoxy-[2,3′-bipyridin]-5-yl}-N-[(3S)-1-methylpyrrolidin-3-yl]piperidine-4-carboxamide]
  pKi: > 8.00

## CN1CC[C@H](NC(=O)C2(c3cnc(-c4cccn4C)c(F)c3)CCN(c3ccc(C(F)(F)F)cc3C#N)CC2)C1 [Compound 1-161, 1-[2-cyano-4-(trifluoromethyl)phenyl]-4-[5-fluoro-6-(1-methyl-1H-pyrrol-2-yl)pyridin-3-yl]-N-[(3S)-1-methylpyrrolidin-3-yl]piperidine-4-carboxamide]
  pKi: > 8.00

## CN1CC[C@@H](NC(=O)C2(c3ccc(-c4ccccc4C#N)nc3)CCN(c3ccc(C(F)(F)F)cc3C#N)CC2)C1 [Compound 1-78, 1-[2-cyano-4-(trifluoromethyl)phenyl]-4-[6-(2-cyanophenyl)pyridin-3-yl]-N-[(3R)-1-methylpyrrolidin-3-yl]piperidine-4-carboxamide]
  pKi: > 8.00

## CCn1nccc1-c1ccc(C2(C(=O)N[C@@H]3CCN(C)C3)CCN(c3ccc(C(F)(F)F)cc3C#N)CC2)cn1 [Compound 1-62, 1-[2-cyano-4-(trifluoromethyl)phenyl]-4-[6-(1-ethyl-1H-pyrazol-5-yl)pyridin-3-yl]-N-[(3R)-1-methylpyrrolidin-3-yl]piperidine-4-carboxamide]
  pKi: > 8.00

## CCOc1ncccc1-c1ccc(C2(C(=O)N[C@@H]3CCNC3)CCN(c3ccc(C(F)(F)F)cc3C#N)CC2)nc1 [Compound 1-21, 1-[2-cyano-4-(trifluoromethyl)phenyl]-4-{2′-ethoxy-[3,3′-bipyridin]-6-yl}-N-[(3R)-pyrrolidin-3-yl]piperidine-4-carboxamide]
  pKi: > 8.00

## CCOc1ccccc1-c1ccc(C2(NC(=O)CN(C)C)CCN(c3ccc(C(F)(F)F)cc3C#N)CC2)cn1 [Compound 2-34, N-{1-[2-cyano-4-(trifluoromethyl)phenyl]-4-[6-(2-ethoxyphenyl)pyridin-3-yl]piperidin-4-yl}-2-(dimethylamino)acetamide]
  pKi: > 8.00

## CCOc1ncccc1-c1ccc(C2(NC(=O)C3CN(C)C3)CCN(c3ccc(C(F)(F)F)cc3C#N)CC2)cc1 [Compound 2-16, N-{1-[2-cyano-4-(trifluoromethyl)phenyl]-4-[4-(2-ethoxypyridin-3-yl)phenyl]piperidin-4-yl}-1-methylazetidine-3-carboxamide]
  pKi: 7.00 to 8.00

## COc1ccccc1-c1ccc(C2(C(=O)NC[C@@H]3C[C@H](F)CN3)CCN(c3ccc(C(F)(F)F)cc3C#N)CC2)cn1 [Compound 1-246, 1-[2-cyano-4-(trifluoromethyl)phenyl]-N-{[(2S,4S)-4-fluoropyrrolidin-2-yl]methyl}-4-[6-(2-methoxyphenyl)pyridin-3-yl]piperidine-4-carboxamide]
  pKi: > 8.00

## COc1ncccc1-c1ccc(C2(C(=O)N[C@@H](C)CN(C)C)CCN(c3ccc(C(F)(F)F)cc3F)CC2)cn1 [Compound 1-295, N-[(2S)-1-(dimethylamino)propan-2-yl]-1-[2-fluoro-4-(trifluoromethyl)phenyl]-4-{2′-methoxy-[2,3′-bipyridin]-5-yl}piperidine-4-carboxamide]
  pKi: > 8.00

## CCOc1ncccc1-c1ccc(C2(C(=O)NCCNC)CCN(c3ccc(C(F)(F)F)cc3F)CC2)cn1 [Compound 1-223, 4-{2′-ethoxy-[2,3′-bipyridin]-5-yl}-1-[2-fluoro-4-(trifluoromethyl)phenyl]-N-[2-(methylamino)ethyl]piperidine-4-carboxamide]
  pKi: > 8.00

## CN1CC[C@@H](NC(=O)C2(c3ccc(-c4ccccc4OC(F)(F)F)nc3)CCN(c3ccc(C(F)(F)F)cc3C#N)CC2)C1 [Compound 1-71, 1-[2-cyano-4-(trifluoromethyl)phenyl]-N-[(3R)-1-methylpyrrolidin-3-yl]-4-{6-[2-(trifluoromethoxy)phenyl]pyridin-3-yl}piperidine-4-carboxamide]
  pKi: > 8.00

## CNCCCNC(=O)C1(c2ccc(-c3cccn3C)nc2)CCN(c2ccc(C(F)(F)F)cc2C#N)CC1 [Compound 1-206, 1-[2-cyano-4-(trifluoromethyl)phenyl]-4-[6-(1-methyl-1H-pyrrol-2-yl)pyridin-3-yl]-N-[3-(methylamino)propyl]piperidine-4-carboxamide]
  pKi: 7.00 to 8.00

## CN1CC[C@H](NC(=O)C2(c3cnc(-c4cccn4C)c(F)c3)CCN(c3ccc(C(F)(F)F)cc3F)CC2)C1 [Compound 1-192, 1-[2-fluoro-4-(trifluoromethyl)phenyl]-4-[5-fluoro-6-(1-methyl-1H-pyrrol-2-yl)pyridin-3-yl]-N-[(3S)-1-methylpyrrolidin-3-yl]piperidine-4-carboxamide]
  pKi: > 8.00

## CN1CC[C@H](NC(=O)C2(c3ccc(-c4cccnc4C4CC4)nc3)CCN(c3ccc(C(F)(F)F)cc3C#N)CC2)C1 [Compound 1-180, 1-[2-cyano-4-(trifluoromethyl)phenyl]-4-{2′-cyclopropyl-[2,3′-bipyridin]-5-yl}-N-[(3S)-1-methylpyrrolidin-3-yl]piperidine-4-carboxamide]
  pKi: > 8.00

## COc1ccccc1-c1ccc(C2(C(=O)NC3CN(C)C3)CCN(c3ccc(C(F)(F)F)cc3C#N)CC2)cn1 [Compound 1-94, 1-[2-cyano-4-(trifluoromethyl)phenyl]-4-[6-(2-methoxyphenyl)pyridin-3-yl]-N-(1-methylazetidin-3-yl)piperidine-4-carboxamide]
  pKi: > 8.00

## COc1ccccc1-c1ccc(C2(C(=O)NCCN3CCC3)CCN(c3ccc(C(F)(F)F)cc3C#N)CC2)cn1 [Compound 1-245, N-[2-(azetidin-1-yl)ethyl]-1-[2-cyano-4-(trifluoromethyl)phenyl]-4-[6-(2-methoxyphenyl)pyridin-3-yl]piperidine-4-carboxamide]
  pKi: > 8.00

## Cc1cccnc1-c1ccc(C2(C(=O)N[C@@H]3CCN(C)C3)CCN(c3ccc(C(F)(F)F)cc3C#N)CC2)cn1 [Compound 1-177, 1-[2-cyano-4-(trifluoromethyl)phenyl]-4-{3′-methyl-[2,2′-bipyridin]-5-yl}-N-[(3R)-1-methylpyrrolidin-3-yl]piperidine-4-carboxamide]
  pKi: 6.00 to 7.00

## CN1CCC[C@H]1CNC(=O)C1(c2ccc(-c3cccn3C)nc2)CCN(c2ccc(C(F)(F)F)cc2C#N)CC1 [Compound 1-229, 1-[2-cyano-4-(trifluoromethyl)phenyl]-4-[6-(1-methyl-1H-pyrrol-2-yl)pyridin-3-yl]-N-{[(2S)-1-methylpyrrolidin-2-yl]methyl}piperidine-4-carboxamide]
  pKi: 7.00 to 8.00
